# Measurements reported in patent publication US10781224B2, “Bis(oxymethyl)phosphinic acid and biogenic metal salts thereof as regulators of plant growth and development” (priority 2016, dated 2020).
# Where “and” joins values, the source holds several entries; their conditions need not be identical. Identical values can stand only once.
# Legend:
# [1] = test system: winter wheat (Vershin variety); assay: Winter wheat seed treatment with BHMPA salts: germination energy and germination rate; format: in vivo
# Outline: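 Corn, winter wheat and rice seeds (50 per dish, on filter paper) were soaked for 1 h in BHMPA or its metal salts at 1·10^−6-1·10^−12%, with water as control. Germination energy was read on day 4 and germination rate on day 8 for wheat and day 7 for rice and corn, following GOST 12038-84, as the mean of four replicates.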
# rice (Diamant variety) = assay: Rice seed treatment with BHMPA salts: germinating power; format: in vivo; conditions: for Length, root / Length, root, + % to control / Length, sprout / Length, sprout, + % to control / Mass, dry, root / Mass, dry, root, + % to control / Mass, dry, sprout / Mass, dry, sprout, + % to control / Mass, wet, root / Mass, wet, root, + % to control / Mass, wet, sprout / Mass, wet, sprout, + % to control: rice seed treatment
# Outline: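 Seeds (50 per Petri dish on two layers of filter paper) soaked 1 h in BHMPA or its Ca, Mg, Na, Co, Mn, Cu or Zn salts at 1·10^−6-1·10^−12%, with water controls. Germination energy read on day 4, germination on day 8 (wheat) or day 7 (rice, corn), as % means of four replicates. Germinating power taken as root and sprout length plus wet and dry mass per 100 seedlings.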
# [2] = winter wheat Vershin, 1·10^−6% solution
# [3] = winter wheat Vershin, 1·10^−7% solution
# [4] = winter wheat Vershin, 1·10^−8% solution
# [5] = winter wheat Vershin, 1·10^−9% solution
# [6] = winter wheat Vershin, 1·10^−10% solution
# [7] = winter wheat Vershin, 1·10^−11% solution
# [8] = winter wheat Vershin, 1·10^−12% solution
# [9] = winter wheat, comparative study vs Melaphen, 1·10^−9% solution
# [10] = comparison with Melaphen (Table XXXIII), solution 1 · 10^−10%
# [11] = experimental solution 1 · 10^−6%
# [12] = experimental solution 1 · 10^−7%
# [13] = experimental solution 1 · 10^−8%
# [14] = experimental solution 1 · 10^−9%
# [15] = experimental solution 1 · 10^−10%
# [16] = experimental solution 1 · 10^−11%
# [17] = experimental solution 1 · 10^−12%
# [18] = rice, vs control, 1·10^−10% solution
substance,measurement,setting,value
Copper BHMPA Salt [Cu-salt],Germination energy,[1]; [2],81.0%
same,Germination rate,[1]; [2],84.0%
same,Germination energy,[1]; [3],87.3%
same,Germination rate,[1]; [3],90.0%
same,Germination energy,[1]; [4],91.4%
same,Germination rate,[1]; [4],96.0%
same,Germination energy,[1]; [5],94.9%
same,Germination rate,[1]; [5],98.0% and 94.3%
same,Germination rate,"[1]; winter wheat Vershin, 1·10^−9% solution, listed as Cu",98.0%
same,Germination energy,[1]; [6],92.1%
same,Germination rate,[1]; [6],96.7%
same,Germination energy,[1]; [7],91.7%
same,Germination rate,[1]; [7],94.0%
same,Germination energy,[1]; [8],87.5%
same,Germination rate,[1]; [8],90.0%
same,Germination energy,[1]; [9],94.7%
same,Germination rate,[1]; [9],98.7%
same,optimum concentration for treating rice seeds before sowing,rice (Diamant variety); rice,1·10^−10%
same,"Length, root",rice (Diamant variety); [10],6.3 cm
same,"Length, root, + % to control",rice (Diamant variety); [10],31%
same,"Length, sprout",rice (Diamant variety); [10],3.3 cm
same,"Length, sprout, + % to control",rice (Diamant variety); [10],27%
same,"Mass, dry, root",rice (Diamant variety); [10],0.26 g/100 plantlings
same,"Mass, dry, root, + % to control",rice (Diamant variety); [10],24%
same,"Mass, dry, sprout",rice (Diamant variety); [10],0.27 g/100 plantlings
same,"Mass, dry, sprout, + % to control",rice (Diamant variety); [10],8%
same,"Mass, wet, root",rice (Diamant variety); [10],1.35 g/100 plantlings
same,"Mass, wet, root, + % to control",rice (Diamant variety); [10],38%
same,"Mass, wet, sprout",rice (Diamant variety); [10],2.25 g/100 plantlings
same,"Mass, wet, sprout, + % to control",rice (Diamant variety); [10],49%
same,"Length, root",rice (Diamant variety); [11],5.4 cm
same,"Length, root, + % to control",rice (Diamant variety); [11],6%
same,"Length, sprout",rice (Diamant variety); [11],2.6 cm
same,"Length, sprout, + % to control",rice (Diamant variety); [11],8%
same,"Mass, dry, root",rice (Diamant variety); [11],0.19 g/100 plantlings
same,"Mass, dry, root, + % to control",rice (Diamant variety); [11],12%
same,"Mass, dry, sprout",rice (Diamant variety); [11],0.26 g/100 plantlings
same,"Mass, dry, sprout, + % to control",rice (Diamant variety); [11],13%
same,"Mass, wet, root",rice (Diamant variety); [11],0.93 g/100 plantlings
same,"Mass, wet, root, + % to control",rice (Diamant variety); [11],13%
same,"Mass, wet, sprout",rice (Diamant variety); [11],1.47 g/100 plantlings
same,"Mass, wet, sprout, + % to control",rice (Diamant variety); [11],6.5%
same,"Length, root",rice (Diamant variety); [12],5.5 cm
same,"Length, root, + % to control",rice (Diamant variety); [12],8%
same,"Length, sprout",rice (Diamant variety); [12],2.7 cm
same,"Length, sprout, + % to control",rice (Diamant variety); [12],12.5%
same,"Mass, dry, root",rice (Diamant variety); [12],0.21 g/100 plantlings
same,"Mass, dry, root, + % to control",rice (Diamant variety); [12],23.5%
same,"Mass, dry, sprout",rice (Diamant variety); [12],0.29 g/100 plantlings
same,"Mass, dry, sprout, + % to control",rice (Diamant variety); [12],26%
same,"Mass, wet, root",rice (Diamant variety); [12],1.03 g/100 plantlings
same,"Mass, wet, root, + % to control",rice (Diamant variety); [12],26%
same,"Mass, wet, sprout",rice (Diamant variety); [12],1.61 g/100 plantlings
same,"Mass, wet, sprout, + % to control",rice (Diamant variety); [12],17%
same,"Length, root",rice (Diamant variety); [13],5.7 cm
same,"Length, root, + % to control",rice (Diamant variety); [13],12%
same,"Length, sprout",rice (Diamant variety); [13],2.8 cm
same,"Length, sprout, + % to control",rice (Diamant variety); [13],17%
same,"Mass, dry, root",rice (Diamant variety); [13],0.23 g/100 plantlings
same,"Mass, dry, root, + % to control",rice (Diamant variety); [13],35%
same,"Mass, dry, sprout",rice (Diamant variety); [13],0.31 g/100 plantlings
same,"Mass, dry, sprout, + % to control",rice (Diamant variety); [13],35%
same,"Mass, wet, root",rice (Diamant variety); [13],1.09 g/100 plantlings
same,"Mass, wet, root, + % to control",rice (Diamant variety); [13],33%
same,"Mass, wet, sprout",rice (Diamant variety); [13],1.74 g/100 plantlings
same,"Mass, wet, sprout, + % to control",rice (Diamant variety); [13],26%
same,"Length, root",rice (Diamant variety); [14],5.9 cm
same,"Length, root, + % to control",rice (Diamant variety); [14],16%
same,"Length, sprout",rice (Diamant variety); [14],2.8 cm
same,"Length, sprout, + % to control",rice (Diamant variety); [14],17%
same,"Mass, dry, root",rice (Diamant variety); [14],0.25 g/100 plantlings
same,"Mass, dry, root, + % to control",rice (Diamant variety); [14],47%
same,"Mass, dry, sprout",rice (Diamant variety); [14],0.33 g/100 plantlings
same,"Mass, dry, sprout, + % to control",rice (Diamant variety); [14],43%
same,"Mass, wet, root",rice (Diamant variety); [14],1.16 g/100 plantlings
same,"Mass, wet, root, + % to control",rice (Diamant variety); [14],41%
same,"Mass, wet, sprout",rice (Diamant variety); [14],1.92 g/100 plantlings
same,"Mass, wet, sprout, + % to control",rice (Diamant variety); [14],39%
same,"Length, root",rice (Diamant variety); [15],6.0 cm
same,"Length, root, + % to control",rice (Diamant variety); [15],18%
same,"Length, sprout",rice (Diamant variety); [15],2.9 cm
same,"Length, sprout, + % to control",rice (Diamant variety); [15],21%
same,"Mass, dry, root",rice (Diamant variety); [15],0.27 g/100 plantlings
same,"Mass, dry, root, + % to control",rice (Diamant variety); [15],59%
same,"Mass, dry, sprout",rice (Diamant variety); [15],0.36 g/100 plantlings
same,"Mass, dry, sprout, + % to control",rice (Diamant variety); [15],56.5%
same,"Mass, wet, root",rice (Diamant variety); [15],1.22 g/100 plantlings
same,"Mass, wet, root, + % to control",rice (Diamant variety); [15],49%
same,"Mass, wet, sprout",rice (Diamant variety); [15],2.11 g/100 plantlings
same,"Mass, wet, sprout, + % to control",rice (Diamant variety); [15],53%
same,"Length, root",rice (Diamant variety); [16],5.9 cm
same,"Length, root, + % to control",rice (Diamant variety); [16],16%
same,"Length, sprout",rice (Diamant variety); [16],2.7 cm
same,"Length, sprout, + % to control",rice (Diamant variety); [16],12.5%
same,"Mass, dry, root",rice (Diamant variety); [16],0.24 g/100 plantlings
same,"Mass, dry, root, + % to control",rice (Diamant variety); [16],41%
same,"Mass, dry, sprout",rice (Diamant variety); [16],0.32 g/100 plantlings
same,"Mass, dry, sprout, + % to control",rice (Diamant variety); [16],39%
same,"Mass, wet, root",rice (Diamant variety); [16],1.12 g/100 plantlings
same,"Mass, wet, root, + % to control",rice (Diamant variety); [16],36.5%
same,"Mass, wet, sprout",rice (Diamant variety); [16],1.87 g/100 plantlings
same,"Mass, wet, sprout, + % to control",rice (Diamant variety); [16],35.5%
same,"Length, root",rice (Diamant variety); [17],5.6 cm
same,"Length, root, + % to control",rice (Diamant variety); [17],10%
same,"Length, sprout",rice (Diamant variety); [17],2.6 cm
same,"Length, sprout, + % to control",rice (Diamant variety); [17],8%
same,"Mass, dry, root",rice (Diamant variety); [17],0.20 g/100 plantlings
same,"Mass, dry, root, + % to control",rice (Diamant variety); [17],18%
same,"Mass, dry, sprout",rice (Diamant variety); [17],0.27 g/100 plantlings
same,"Mass, dry, sprout, + % to control",rice (Diamant variety); [17],17%
same,"Mass, wet, root",rice (Diamant variety); [17],1.01 g/100 plantlings
same,"Mass, wet, root, + % to control",rice (Diamant variety); [17],23%
same,"Mass, wet, sprout",rice (Diamant variety); [17],1.75 g/100 plantlings
same,"Mass, wet, sprout, + % to control",rice (Diamant variety); [17],27%
same,dry mass of the roots increased by,rice (Diamant variety); [18],59%
same,dry mass of the sprouts increased by,rice (Diamant variety); [18],56.5%
same,length of the root increased by,rice (Diamant variety); [18],18%
same,length of the sprout increased by,rice (Diamant variety); [18],21%
same,wet mass of the roots increased by,rice (Diamant variety); [18],49%
same,wet mass of the sprouts increased by,rice (Diamant variety); [18],53%
